Where two headings read alike, the source gives them in different places. Blank lines part the entries; values can stand above or below the compound they belong to.
Columns and labels:
[1] = reports in the literature; cited from earlier work
[2] = male, Sprague-Dawley, rat, in vivo
[3] = etoposide capsules; cited from earlier work
[4] = 3H-etoposide IV, oral, oral with cyclosporin in rats, whole blood radioactivity (Example 6, NP960102); format: in vivo
[5] = Sprague Dawley, rat, in vivo
[6] = Sprague Dawley, rat, in vivo; remark: listed apart in the source
metastatic breast cancer = conditions: continuous 96-hour infusion every three weeks; taxane-failure patients; cited from earlier work
[7] = not given; remark: listed apart in the source
[8] = not given; remark: listed apart in the source
[9] = oral; cited from earlier work
in vivo = conditions: Sprague Dawley, rat
[10] = Repeated oral co-administration of paclitaxel with CsA, plasma levels; format: in vivo, rats; conditions: repeated regimen
[11] = oral 3H-paclitaxel 9 mg/kg, cyclosporin dose 2 × 5 mg/kg oral
[12] = radioactivity of oral 3H-paclitaxel 9 mg/kg, cyclosporin dose 2 × 5 mg/kg oral
[13] = Grp C, etoposide 1/PO with CsA 5/PO before and with
[14] = Sprague Dawley, rat, in vivo, po
[15] = Sprague Dawley, rat, in vivo, po, 9 mg/kg
[16] = total radioactivity, Paclitaxel IV 9 mg/kg

Compound: C/C=C/C[C@@H](C)[C@@H](OC(C)=O)[C@H]1C(=O)N[C@@H](CC)C(=O)N(C)CC(=O)N(C)[C@@H](CC(C)C)C(=O)N[C@@H](C(C)C)C(=O)N(C)[C@@H](CC(C)C)C(=O)N[C@@H](C)C(=O)N[C@H](C)C(=O)N(C)[C@@H](CC(C)C)C(=O)N(C)[C@@H](CC(C)C)C(=O)N(C)[C@@H](C(C)C)C(=O)N1C [Cyclosporin Acetyl A, acetyl cyclosporin A]
- % Absorption [11]: 25.4%
- AUC0-24 [12]: 8.39 μg eq. hr/ml

Compound: C/C=C/C[C@@H](C)[C@@H](O)[C@H]1C(=O)N[C@@H]([C@@H](C)O)C(=O)N(C)CC(=O)N(C)[C@@H](CC(C)C)C(=O)N[C@@H](C(C)C)C(=O)N(C)[C@@H](CC(C)C)C(=O)N[C@@H](C)C(=O)N[C@H](C)C(=O)N(C)[C@@H](CC(C)C)C(=O)N(C)[C@@H](CC(C)C)C(=O)N(C)[C@@H](C(C)C)C(=O)N1C [Cyclosporin C, cyclosporin C]
- % Absorption [11]: 34.5%
- AUC0-24 [12]: 11.39 μg eq. hr/ml

Compound: C/C=C/C[C@@H](C)[C@@H](O)[C@H]1C(=O)N[C@@H](C(C)C)C(=O)N(C)CC(=O)N(C)[C@@H](CC(C)C)C(=O)N[C@@H](C(C)C)C(=O)N(C)[C@@H](CC(C)C)C(=O)N[C@@H](C)C(=O)N[C@H](C)C(=O)N(C)[C@@H](CC(C)C)C(=O)N(C)[C@@H](CC(C)C)C(=O)N(C)[C@@H](C(C)C)C(=O)N1C [Cyclosporin D, cyclosporin D]
- immunosuppressive activity [1]: least immunosuppressive activity

Compound: CCCC[C@@H](C)[C@@H](O)[C@H]1C(=O)N[C@@H](CC)C(=O)N(C)CC(=O)N(C)[C@@H](CC(C)C)C(=O)N[C@@H](C(C)C)C(=O)N(C)[C@@H](CC(C)C)C(=O)N[C@@H](C)C(=O)N[C@H](C)C(=O)N(C)[C@@H](CC(C)C)C(=O)N(C)[C@@H](CC(C)C)C(=O)N(C)[C@@H](C(C)C)C(=O)N1C [Cyclosporin Dihydro A, dihydro cyclosporin A]
- AUC0-24 [12]: 8.5 μg eq. hr/ml

Compound: C/C=C/C[C@@H](C)C[C@H]1C(=O)N[C@@H](CC)C(=O)N(C)CC(=O)N(C)[C@@H](CC(C)C)C(=O)N[C@@H](C(C)C)C(=O)N(C)[C@@H](CC(C)C)C(=O)N[C@@H](C)C(=O)N[C@H](C)C(=O)N(C)[C@@H](CC(C)C)C(=O)N(C)[C@@H](CC(C)C)C(=O)N(C)[C@@H](C(C)C)C(=O)N1C [Cyclosporin F, cyclosporin F]
- immunosuppressive activity [1]: does not display immunosuppressive activity
- AUC0-24 (oral 3H-paclitaxel 9 mg/kg, cyclosporin dose 2 × 10 mg/kg oral): 11.99 μg eq. hr/ml
- AUC0-24 [12]: 8.99 μg eq. hr/ml
- activity in promoting oral absorption of paclitaxel (whole blood radioactivity profiles, 5 mg/kg oral before and with paclitaxel 9 mg/kg): enhances the oral bioavailability of paclitaxel

Compound: C/C=C/C[C@@H](C)[C@@H](O)[C@H]1C(=O)N[C@@H](CCC)C(=O)N(C)CC(=O)N(C)[C@@H](CC(C)C)C(=O)N[C@@H](C(C)C)C(=O)N(C)[C@@H](CC(C)C)C(=O)N[C@@H](C)C(=O)N[C@H](C)C(=O)N(C)[C@@H](CC(C)C)C(=O)N(C)[C@@H](CC(C)C)C(=O)N(C)[C@@H](C(C)C)C(=O)N1C [Cyclosporin G, cyclosporin G]
- % Absorption [11]: 40.0%
- AUC0-24 [12]: 13.22 μg eq. hr/ml

Compound: C/C=C/C[C@@H](C)[C@@H](O)[C@H]1C(=O)N[C@@H](CC)C(=O)N(C)CC(=O)N(C)[C@@H](CC(C)C)C(=O)N[C@@H](C(C)C)C(=O)N[C@@H](CC(C)C)C(=O)N[C@@H](C)C(=O)N[C@H](C)C(=O)N(C)[C@@H](CC(C)C)C(=O)N(C)[C@@H](CC(C)C)C(=O)N(C)[C@@H](C(C)C)C(=O)N1C [Cyclosporin U, cyclosporin U]
- % Absorption [11]: 15.2%
- AUC0-24 [12]: 5.02 μg eq. hr/ml

- t½ [2]: 26.6 h
Compound: OCCN(CCO)c1nc(N2CCCCC2)c2nc(N(CCO)CCO)nc(N3CCCCC3)c2n1 [Dipyridamole, dipyridamole]

- Cmax ([4]; Grp A, etoposide only 1/IV): 2.16 ug*eq/mL
- t½ ([4]; Grp A, etoposide only 1/IV): 26.5 h
- AUC0-24 ([4]; Grp A, etoposide only 1/IV, total radioactivity): 1.08 µg·h/mL
- AUC0-24 ([4]; Grp B, etoposide only 1/PO): 0.61 µg·h/mL
- Cmax ([4]; Grp B, etoposide only 1/PO): 0.03 ug*eq/mL
- F % ([4]; Grp B, etoposide only 1/PO): 56.5%
- t½ ([4]; Grp B, etoposide only 1/PO): 19.1 h
- AUC0-24 [4, 13]: 1.04 µg·h/mL
- Cmax [4, 13]: 0.12 ug*eq/mL
- F % [4, 13]: 96.3%
- t½ [4, 13]: 18.1 h
- F % ([4]; Grp C, etoposide 1/PO with CsA 5/PO before and with, listed as etoposide): about 96%
Compound: COc1cc([C@@H]2c3cc4c(cc3[C@@H](O[C@@H]3O[C@@H]5CO[C@@H](C)O[C@H]5[C@H](O)[C@H]3O)[C@H]3COC(=O)[C@H]23)OCO4)cc(OC)c1O [Etoposide, etoposide]
- mean value of oral bioavailability [3]: approximately 50%

- t½ [2]: 9.23 h
Compound: CC(=O)N1CCN(c2ccc(OCC3COC(Cn4ccnc4)(c4ccc(Cl)cc4Cl)O3)cc2)CC1 (centres unmarked) [Ketoconazole, ketoconazole]

- t½ [2]: 23.1 h
Compound: CC(=O)O[C@]1(C(C)=O)CC[C@H]2[C@@H]3C=C(C)C4=CC(=O)CC[C@]4(C)[C@H]3CC[C@@]21C [Magace, megestrol acetate]

Compound: CC(=O)O[C@H]1C(=O)[C@@]2(C)[C@H]([C@H](OC(=O)c3ccccc3)[C@]3(O)C[C@H](OC(=O)[C@H](O)[C@@H](NC(=O)c4ccccc4)c4ccccc4)C(C)=C1C3(C)C)[C@]1(OC(C)=O)CO[C@@H]1C[C@@H]2O [Paclitaxel, paclitaxel]
- Absolute F [5]: 0.9%
- V ([6]; iv): 4.236 L/kg
- AUC0-[…] ([6]; po): 0.349 µg·h/mL
- F % ([6]; po): 1.7%
- V ([6]; po): 5.029 L/kg
- response rate (metastatic breast cancer): 27%
- F (%) Based on AUC0-00 [7, 14]: 16.4%
- F (%) based on AUC0-24 hr [7, 14]: 5.9%
- AUC0-00 [7, 15]: 4.5 μg equiv. hr/mL
- AUC0-24 hr [7, 15]: 1.4 μg equiv. hr/mL
- AUC0-00 [7, 16]: 27.4 μg equiv. hr/mL
- AUC0-24 hr [7, 16]: 23.8 μg equiv. hr/mL
- AUC0-24 ([8]; NP951001, paclitaxel only 9/IV): 32.04 µg·h/mL
- AUC0-24 ([8]; NP951001, paclitaxel only 9/PO): 3.24 µg·h/mL
- % Dose in urine (4-24 hr) ([8]; Sprague Dawley, rat, in vivo, iv): 2.2%
- % Dose in urine (4-24 hr) [8, 14]: 1.9%
- AUC0-24 [8, 14]: 3.2 μg eq × hr/ml
- Tmax [8, 14]: 25 h
- AUC0-24 ([8]; total radioactivity in blood, IV (A)): 32.8 μg eq × hr/ml
- absorbed when administered orally [9]: less than 1%
- bioavailability (in vivo; in vivo, po): < 1%
- AUC(0-t) (in vivo; serum, oral, 9 mg/kg): 0.08 µg·h/mL
- steady state plasma levels of paclitaxel achieved [10]: by the third day

- t½ [2]: 20.0 h
Compound: CC(=O)[C@H]1CC[C@H]2[C@@H]3CCC4=CC(=O)CC[C@]4(C)[C@H]3CC[C@]12C [Progesterone, progesterone]

Compound: dihydro cyclosporin C [Cyclosporin Dihydro C]
- % Absorption [11]: 45.1%
- AUC0-24 [12]: 13.09 μg eq. hr/ml

— patent publication US20050238634A1, “Method, compositions and kits for increasing the oral bioavailability of pharmaceutical agents” (Baker Norton Pharmaceuticals, Inc., priority 1995, published 2005)
